According to PMC10733463, “Berberine-microbiota interplay: orchestrating gut health through modulation of the gut microbiota and metabolic transformation into bioactive metabolites” (Frontiers in Pharmacology, 2023):

Legend:
caecal microbiota = test: SCFA quantification in caecal microbiota cultures supplemented with berberine or berberrubine; type: cell-based, broiler chicken; details: 24 h
Experimental: As berberine and its demethylated metabolites correlated with SCFAs in vivo, their ability to directly influence SCFA metabolism was assessed in vitro. […] Cultures were centrifuged at 3,724 g for 5 min 1 mL 1:2 diluted supernatant in Milli-Q water was used for SCFA analysis. Acetate, propionate and butyrate were quantified using the GC-FID method described by ([De […] et al., 2010]). This method involves the extraction of SCFA from samples with diethyl ether after the addition of 2-methyl hexanoic acid as an internal standard.

[1] = UPLC-MS/MS quantification of berberine and metabolites in ileal and caecal content; type: in vivo, Ross 308 broiler chickens; details: 21 days
Text: The study was undertaken following the guidelines of the ethics committee of the Faculty of Veterinary Medicine and Bioscience Engineering, Ghent University, in accordance with the EU Directive 2010/63/EU. One-day-old Ross 308 male broilers were obtained from a local hatchery and housed in pens on wood shavings. They were allotted into 4 groups, with three replicate pens per group each housing 8 chickens. The animals were not vaccinated. Water and commercial starter feed (day 1–12, FARM 1 Mash, Country’s Best, Versele Laga, Deinze, Belgium) or grower (day 13–21, FARM 2 mash, Country’s Best, Versele Laga, Deinze, Belgium) were provided ad libitum. The control group received the standard non-supplemented diets, whereas the chickens in other groups were fed the same feed supplemented with 0.1, 0.5 or 1 g berberine/kg feed throughout the whole trial period. At day 21, 4 birds per pen were weighted then euthanized by sodium pentobarbital injection for sampling. Individual jejunal, ileal, caecal and colonic contents were stored at −20°C for microbiota composition analysis (16S rRNA gene sequencing). Additionally, ileal and caecal content samples were collected and stored at −20°C for berberine and berberine-derived metabolite quantification. Duodenal tissue samples were collected and fixed in 4% phosphate buffered formaldehyde for histological analysis. Blood samples were collected in heparin tubes and centrifuged at 524 g for 10 min to recover the plasma fraction, which was further mixed with 17 mg/mL L-ascorbic acid for dihydroberberine stabilization, and stored at −20°C for berberine and berberine-derived metabolite quantification.
The column temperature was maintained at 25°C. The autosampler temperature was set at 10°C.
250 mg of ileal or caecal content was weighed in a 15 mL polypropylene centrifuge tube and 250 µL of ascorbic acid 170 mg/mL solution was added for stabilization of dihydroberberine, followed by brief vortexing. Subsequently, 25 µL of an internal standard solution containing 250 μg/mL of berberine-d6 and 2.5 μg/mL tetrahydropalmatine were added, followed by brief vortexing. A 2.5 mL volume of extraction solvent was then added, consisting of a 1% (v/v) formic acid solution in methanol. The sample was put on a rotary shaker set at 80 rpm for 20 min, followed by centrifugation (3,720 g, 10 min, 4°C). The supernatant was then diluted, by a factor 5 for measurement of low abundance components, and by a factor 2,000 for measurement of high abundance components. The 1/5 diluted sample extract was prepared directly in an autosampler vial as follows: 200 µL sample extract were mixed with 100 µL ascorbic acid 170 mg/mL solution and 700 µL Milli-Q water. For the 1/2,000 diluted sample extract, an intermediate 1/100 sample dilution was prepared by combining 500 µL sample extract and 49.5 mL of Milli-Q water. 50 μL was then transferred in an autosampler vial followed by the addition of 950 µL of Milli-Q water. For both dilutions, a 5 µL sample aliquot was injected onto the UPLC-MS/MS apparatus. Quantification was based on the ratio of the analyte peak area compared to the peak area of the internal standard tetrahydropalmatine for 1/5 diluted sample extracts, and on the ratio of the analyte peak area compared to the peak area of the internal standard berberine-d6 for 1/2,000 diluted sample extracts.
Calibration standards and quality control samples were prepared as follows: 250 mg of blank ileal or caecal content were supplemented with 250 µL of ascorbic acid 170 mg/mL solution, 25 µL mixed solution of berberine and metabolites (with the exception of dihydroberberine) at different levels, 25 µL of dihydroberberine solution, stabilized with 17 mg/mL ascorbic acid, at different levels and 25 µL of an internal standard solution containing 0.625 μg/mL of berberine-d6 and 2.5 μg/mL tetrahydropalmatine. The calibration curve was in the 62.5–5,000 ng/g range, and included 62.5, 125, 250, 500, 1,000, 2,500, and 5,000 ng/g levels. […]

Ratio caecum / ileum (concentration) ([1]; 0.1 g berberine/kg feed)	Ratio caecum / ileum (concentration) ([1]; 0.5 g berberine/kg feed)	Ratio caecum / ileum (concentration) ([1]; 1 g berberine/kg feed)	Structure (SMILES)	SCFA production in caecal microbiota cultures (caecal microbiota; 25, 2.5 µM)	Concentrations of acetate, butyrate and propionate in caecal microbiota cultures (caecal microbiota; higher concentration (2.5 µM))
21.43	29.98	63.80	COc1ccc2cc3[n+](cc2c1O)CCc1cc2c(cc1-3)OCO2 [Berberrubine, berberrubine chloride]	–	increased
0.31	0.49	0.72	COc1cc2c(cc1O)CC[n+]1cc3c(OC)c(OC)ccc3cc1-2 [Jatrorrhizine, Jatrorrhizine chloride]	–	–

Structure (SMILES)	Ratio caecum / ileum (concentration) ([1]; 0.1 g berberine/kg feed)	Ratio caecum / ileum (concentration) ([1]; 0.5 g berberine/kg feed)	Ratio caecum / ileum (concentration) ([1]; 1 g berberine/kg feed)	SCFA production in caecal microbiota cultures (caecal microbiota; 25, 2.5 µM)	Concentrations of acetate, butyrate and propionate in caecal microbiota cultures (caecal microbiota; higher concentration (2.5 µM))
COc1ccc2cc3[n+](cc2c1OC)CCc1cc2c(cc1-3)OCO2 [Berberine, Berberine chloride]	0.07	0.14	0.22	did not significantly affect	–
